Laboratory results: PubChem BioAssay AID248 (DTP/NCI, 2004)
Where “and” joins values, the source holds several entries; their conditions need not be identical. Identical values can stand only once. Inconclusive results and toxic doses are left out.

Test system: L1210 leukemia ip in BDF1 mice, survival T/C
Experiment: NCI In Vivo Anticancer Drug Screen. Data for tumor model L1210 Leukemia (intraperitoneal) in B6D2F1 (BDF1) mice
Details: endpoint: mean survival time, higher = longer survival
Procedure, shortened: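 Transplanted-tumor mice were given test agent; controls received vehicle only. Survival readings from the two groups were divided (treated over control).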

Structure (SMILES): NC(=O)c1cn(C2OC(CO)C(O)C2O)c2ncnc(N)c12 (centres undefined)
- T/C (dose: 0.1 mg/kg/injection, schedule: Q01DX Z (ip), vehicle: carboxymethylcellulose (CMC)): 123 % of control
- T/C (dose: 0.12 mg/kg/injection, schedule: Q01DX009 (ip), vehicle: saline): 118 % of control
- T/C (dose: 0.16 mg/kg/injection, schedule: Q01DX009 (ip), vehicle: saline): 119 % of control
- T/C (dose: 0.16 mg/kg/injection, schedule: Q#A X034 (ip), vehicle: carboxymethylcellulose (CMC)): 116 % of control
- T/C (dose: 0.19 mg/kg/injection, schedule: Q01DX005 (ip), vehicle: saline): 123 % of control
- T/C (dose: 0.19 mg/kg/injection, schedule: Q01DX009 (ip), vehicle: saline): 121 % of control
- T/C (dose: 0.2 mg/kg/injection, schedule: Q01DX Z (ip), vehicle: carboxymethylcellulose (CMC)): 121 % of control
- T/C (dose: 0.25 mg/kg/injection, schedule: Q01DX001 (sc), vehicle: saline): 100 % of control
- T/C (dose: 0.32 mg/kg/injection, schedule: Q01DX017 (ip), vehicle: carboxymethylcellulose (CMC)): 94 % of control
- T/C (dose: 0.32 mg/kg/injection, schedule: Q02DX009 (ip), vehicle: carboxymethylcellulose (CMC)): 100 % of control
- T/C (dose: 0.32 mg/kg/injection, schedule: Q04DX005 (ip), vehicle: carboxymethylcellulose (CMC)): 104 % of control
- T/C (dose: 0.32 mg/kg/injection, schedule: Q#A X034 (ip), vehicle: carboxymethylcellulose (CMC)): 104 % of control
- T/C (dose: 0.37 mg/kg/injection, schedule: Q01DX009 (ip), vehicle: Klucel (hydroxypropylcellulose) (HPC)): 107 % of control
- T/C (dose: 0.39 mg/kg/injection, schedule: Q01DX009 (ip), vehicle: saline): 108 % of control
- T/C (dose: 0.5 mg/kg/injection, schedule: Q01DX001 (sc), vehicle: saline): 98 % of control
- T/C (dose: 0.5 mg/kg/injection, schedule: Q01DX005 (ip), vehicle: saline): 157 % of control
- T/C (dose: 0.5 mg/kg/injection, schedule: Q01DX010 (oral), vehicle: saline): 97 % of control
- T/C (dose: 0.5 mg/kg/injection, schedule: Q## X003 (ip), vehicle: saline): 114 % of control
- T/C (dose: 0.62 mg/kg/injection, schedule: Q01DX001 (ip), vehicle: carboxymethylcellulose (CMC)): 94 % of control
- T/C (dose: 0.62 mg/kg/injection, schedule: Q01DX017 (ip), vehicle: carboxymethylcellulose (CMC)): 105 % of control
- T/C (dose: 0.62 mg/kg/injection, schedule: Q02DX009 (ip), vehicle: carboxymethylcellulose (CMC)): 101 % of control
- T/C (dose: 0.62 mg/kg/injection, schedule: Q04DX005 (ip), vehicle: carboxymethylcellulose (CMC)): 113 % of control
- T/C (dose: 0.62 mg/kg/injection, schedule: Q08DX003 (ip), vehicle: carboxymethylcellulose (CMC)): 105 % of control
- T/C (dose: 0.62 mg/kg/injection, schedule: Q#A X034 (ip), vehicle: carboxymethylcellulose (CMC)): 101 % of control
- T/C (dose: 0.65 mg/kg/injection, schedule: Q01DX001 (ip), vehicle: water): 122 % of control
- T/C (dose: 0.75 mg/kg/injection, schedule: Q01DX009 (ip), vehicle: saline): 112 % of control and 117 % of control
- T/C (dose: 0.78 mg/kg/injection, schedule: Q01DX009 (ip), vehicle: saline): 108 % of control and 123 % of control
- T/C (dose: 0.8 mg/kg/injection, schedule: Q01DX Z (ip), vehicle: water): 123 % of control
- T/C (dose: 1.0 mg/kg/injection, schedule: Q01DX001 (sc), vehicle: saline): 102 % of control and 104 % of control
- T/C (dose: 1.0 mg/kg/injection, schedule: Q01DX005 (ip), vehicle: saline): 165 % of control
- T/C (dose: 1.0 mg/kg/injection, schedule: Q01DX006 (iv), vehicle: saline): 111 % of control
- T/C (dose: 1.0 mg/kg/injection, schedule: Q01DX010 (oral), vehicle: saline): 103 % of control
- T/C (dose: 1.0 mg/kg/injection, schedule: Q01DX Z (im), vehicle: saline): 109 % of control
- T/C (dose: 1.0 mg/kg/injection, schedule: Q01DX Z (ip), vehicle: carboxymethylcellulose (CMC)): 120 % of control
- T/C (dose: 1.0 mg/kg/injection, schedule: Q03DX005 (ip), vehicle: other): 162 % of control
- T/C (dose: 1.0 mg/kg/injection, schedule: Q## X008 (ip), vehicle: saline): 150 % of control
- T/C (dose: 1.25 mg/kg/injection, schedule: Q01DX001 (ip), vehicle: carboxymethylcellulose (CMC)): 119 % of control
- T/C (dose: 1.25 mg/kg/injection, schedule: Q01DX017 (ip), vehicle: carboxymethylcellulose (CMC)): 89 % of control
- T/C (dose: 1.25 mg/kg/injection, schedule: Q02DX009 (ip), vehicle: carboxymethylcellulose (CMC)): 103 % of control
- T/C (dose: 1.25 mg/kg/injection, schedule: Q04DX005 (ip), vehicle: carboxymethylcellulose (CMC)): 110 % of control
- T/C (dose: 1.25 mg/kg/injection, schedule: Q08DX003 (ip), vehicle: carboxymethylcellulose (CMC)): 106 % of control
- T/C (dose: 1.5 mg/kg/injection, schedule: Q01DX009 (ip), vehicle: Klucel (hydroxypropylcellulose) (HPC)): 98 % of control
- T/C (dose: 1.5 mg/kg/injection, schedule: Q01DX009 (ip), vehicle: saline with Tween-80): 114 % of control and 118 % of control
- T/C (dose: 1.5 mg/kg/injection, schedule: Q01DX009 (ip), vehicle: saline): 112 % of control
- T/C (dose: 1.5 mg/kg/injection, schedule: Q01DX Z (ip), vehicle: carboxymethylcellulose (CMC)): 108 % of control
- T/C (dose: 1.5 mg/kg/injection, schedule: Q01DX Z (ip), vehicle: water): 101 % of control
- T/C (dose: 1.56 mg/kg/injection, schedule: Q01DX005 (ip), vehicle: saline): 90 % of control
- T/C (dose: 1.6 mg/kg/injection, schedule: Q01DX009 (ip), vehicle: saline): 108 % of control
- T/C (dose: 1.8 mg/kg/injection, schedule: Q01DX Z (ip), vehicle: water): 152 % of control
- T/C (dose: 2.0 mg/kg/injection, schedule: Q01DX001 (sc), vehicle: saline): 103 % of control and 108 % of control
- T/C (dose: 2.0 mg/kg/injection, schedule: Q01DX006 (iv), vehicle: saline): 115 % of control
- T/C (dose: 2.0 mg/kg/injection, schedule: Q01DX009 (ip), vehicle: saline): 96 % of control and 100 % of control
- T/C (dose: 2.0 mg/kg/injection, schedule: Q01DX010 (oral), vehicle: saline): 104 % of control
- T/C (dose: 2.0 mg/kg/injection, schedule: Q01DX Z (im), vehicle: saline): 117 % of control
- T/C (dose: 2.0 mg/kg/injection, schedule: Q01DX Z (ip), vehicle: carboxymethylcellulose (CMC)): 105 % of control
- T/C (dose: 2.0 mg/kg/injection, schedule: Q03DX005 (ip), vehicle: other): 155 % of control
- T/C (dose: 2.0 mg/kg/injection, schedule: Q## X003 (ip), vehicle: saline): 220 % of control
- T/C (dose: 2.0 mg/kg/injection, schedule: Q## X008 (ip), vehicle: saline): 157 % of control
- T/C (dose: 2.0 mg/kg/injection, schedule: Q## X024 (ip), vehicle: saline): 155 % of control
- T/C (dose: 2.4 mg/kg/injection, schedule: Q01DX009 (ip), vehicle: saline): 96 % of control
- T/C (dose: 2.5 mg/kg/injection, schedule: Q01DX001 (ip), vehicle: carboxymethylcellulose (CMC)): 165 % of control
- T/C (dose: 2.5 mg/kg/injection, schedule: Q02DX009 (ip), vehicle: carboxymethylcellulose (CMC)): 90 % of control
- T/C (dose: 2.5 mg/kg/injection, schedule: Q04DX005 (ip), vehicle: carboxymethylcellulose (CMC)): 118 % of control
- T/C (dose: 2.7 mg/kg/injection, schedule: Q01DX Z (ip), vehicle: water): 161 % of control
- T/C (dose: 3.0 mg/kg/injection, schedule: Q01DX001 (ip), vehicle: water): 157 % of control
- T/C (dose: 3.0 mg/kg/injection, schedule: Q01DX009 (ip), vehicle: saline with Tween-80): 110 % of control
- T/C (dose: 3.0 mg/kg/injection, schedule: Q01DX Z (ip), vehicle: water): 104 % of control
- T/C (dose: 3.0 mg/kg/injection, schedule: Q03DX005 (ip), vehicle: other): 157 % of control and 170 % of control
- T/C (dose: 4.0 mg/kg/injection, schedule: Q01DX001 (ip), vehicle: clinical formulation): 159 % of control
- T/C (dose: 4.0 mg/kg/injection, schedule: Q01DX001 (sc), vehicle: saline): 102 % of control and 107 % of control
- T/C (dose: 4.0 mg/kg/injection, schedule: Q01DX006 (iv), vehicle: saline): 91 % of control
- T/C (dose: 4.0 mg/kg/injection, schedule: Q01DX010 (oral), vehicle: saline): 101 % of control
- T/C (dose: 4.0 mg/kg/injection, schedule: Q01DX Z (im), vehicle: saline): 108 % of control
- T/C (dose: 4.0 mg/kg/injection, schedule: Q## X008 (ip), vehicle: saline): 170 % of control
- T/C (dose: 4.0 mg/kg/injection, schedule: Q## X024 (ip), vehicle: saline): 97 % of control
- T/C (dose: 5.0 mg/kg/injection, schedule: Q01DX001 (ip), vehicle: water): 185 % of control
- T/C (dose: 5.0 mg/kg/injection, schedule: Q01DX001 (oral), vehicle: saline): 102 % of control and 103 % of control
- T/C (dose: 5.0 mg/kg/injection, schedule: Q03DX005 (ip), vehicle: other): 162 % of control
- T/C (dose: 5.0 mg/kg/injection, schedule: Q08DX003 (ip), vehicle: carboxymethylcellulose (CMC)): 121 % of control
- T/C (dose: 8.0 mg/kg/injection, schedule: Q## X003 (ip), vehicle: saline): 109 % of control
- T/C (dose: 8.0 mg/kg/injection, schedule: Q## X008 (ip), vehicle: saline): 195 % of control
- T/C (dose: 10.0 mg/kg/injection, schedule: Q01DX001 (oral), vehicle: saline): 105 % of control
- T/C (dose: 16.0 mg/kg/injection, schedule: Q01DX001 (ip), vehicle: saline): 102 % of control
- T/C (dose: 20.0 mg/kg/injection, schedule: Q01DX001 (oral), vehicle: saline): 112 % of control
